According to US6596696B1, “Malto-oligosaccharide derivatives and uses thereof” (Kikkoman Corporation, priority 1999, dated 2003):

Tests used:
[1] = target: T1, α-amylase derived from human pancreatic juice (HPA) (Homo sapiens, UniProt P04746); assay: In vitro amylase activity inhibition test, HPA (blue starch, Neo Amylase Test); assay type: biochemical; conditions: 37° C., 30 minutes, blue starch substrate
T1 construct: purchased International Reagents Corp. Japan Calibzyme AMY
T1 sequence (P04746 16-511): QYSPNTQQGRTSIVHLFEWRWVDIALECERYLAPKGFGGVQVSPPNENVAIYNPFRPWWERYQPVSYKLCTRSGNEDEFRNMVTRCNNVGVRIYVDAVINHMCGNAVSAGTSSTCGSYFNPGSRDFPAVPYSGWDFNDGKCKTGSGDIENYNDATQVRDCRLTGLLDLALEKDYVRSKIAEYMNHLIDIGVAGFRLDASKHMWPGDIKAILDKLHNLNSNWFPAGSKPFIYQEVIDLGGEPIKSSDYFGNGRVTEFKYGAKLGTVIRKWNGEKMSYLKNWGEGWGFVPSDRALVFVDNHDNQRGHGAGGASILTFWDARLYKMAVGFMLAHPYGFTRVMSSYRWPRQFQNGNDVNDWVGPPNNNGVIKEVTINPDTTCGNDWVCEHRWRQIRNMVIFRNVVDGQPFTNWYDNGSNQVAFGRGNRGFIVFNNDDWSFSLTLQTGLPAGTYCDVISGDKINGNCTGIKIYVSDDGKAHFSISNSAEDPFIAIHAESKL
Protocol: (§1) (1) Preparation of Human α-amylase Solution
(§2) Commercial HPA and HSA were dissolved in purified water to a concentration of 350 IU/1 to prepare an α-amylase solution. As commercial HPA and HSA, “Calibzyme AMY” (available from International Reagents Corp. Japan) was used. The α-amylase activity was determined according to the calibration curve of a commercial α-amylase determining reagent “Neo Amylase Test ┌FDAIICHI┘” (available from Daiichi Pure Chemicals Co., Ltd., Japan).
(§3) (2) Preparation of Inhibitor Solution
(§4) DOG2Az obtained in Example 1, GDOG2Az obtained in Example 2 and comparative G2Az (6^3-position non-modified maltoligosaccharide derivative disclosed in JP-A-9-278789) represented by the following formula
(§5) (3) were diluted with distilled water so that the final concentration would become 5 to 0.0001 mM. [drawing 4]
(§6) (3) Determination of Human α-amylase Inhibitory Activity (IC50) of Inhibitor Solution
(§7) 3.0 ml of distilled water, 1.0 ml of the inhibitor solution, Neo Amylase Test ┌DAIICHI┘ (produced by Daiichi Pure Chemicals Co., Ltd., Japan) and one tablet of blue starch were added to 100 μl of HPA or HSA solution, and the mixture was stirred by a mixer for about 10 seconds and then heated at 37° C. for 30 minutes. Thereafter, 1.0 ml of 0.5 N sodium hydroxide solution was added and the mixture was further stirred. Then the reaction was stopped, the solution was centrifuged (1,500 G, 5 minutes) and absorbance of the supernatant at 620 nm was measured. In blank, distilled water was used in place of the inhibitor solution. “IC50” indicates the final concentration (mM) of the inhibitor material required for inhibiting the activity of HPA or HSA solution by 50%.

[2] = target: T2, α-amylase derived from human salivary gland (HSA) (Homo sapiens, UniProt P0DUB6); assay: In vitro amylase activity inhibition test, HSA (blue starch, Neo Amylase Test); assay type: biochemical; conditions: 37° C., 30 minutes, blue starch substrate
T2 construct: purchased International Reagents Corp. Japan Calibzyme AMY
T2 sequence (P0DUB6 16-511): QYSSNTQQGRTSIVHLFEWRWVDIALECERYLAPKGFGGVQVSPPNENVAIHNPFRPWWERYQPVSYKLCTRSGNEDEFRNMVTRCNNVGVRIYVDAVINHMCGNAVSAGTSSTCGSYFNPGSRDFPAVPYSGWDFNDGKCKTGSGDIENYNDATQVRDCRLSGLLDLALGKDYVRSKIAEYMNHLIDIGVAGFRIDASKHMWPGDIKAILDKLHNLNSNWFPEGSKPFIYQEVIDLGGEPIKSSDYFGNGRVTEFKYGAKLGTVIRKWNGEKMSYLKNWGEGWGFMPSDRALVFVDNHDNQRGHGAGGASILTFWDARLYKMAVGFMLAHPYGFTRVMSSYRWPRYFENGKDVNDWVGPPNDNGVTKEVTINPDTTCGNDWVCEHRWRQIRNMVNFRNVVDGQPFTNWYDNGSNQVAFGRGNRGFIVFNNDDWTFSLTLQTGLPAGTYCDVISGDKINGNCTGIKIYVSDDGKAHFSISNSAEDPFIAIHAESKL
Protocol: as §1, §2, §3, §4, §5, §6, §7

blood glucose level = assay: Anti-diabetic action: inhibition of rise of blood glucose level after corn starch intake in mice; assay type: in vivo, mice (Crj:CD-1(ICR)); conditions: for Significant test (t-test): P value, inhibition of rise of blood glucose level; for Blood glucose level before intake: mice fasted 20 hours, 0 min; for Blood glucose level before intake / Blood glucose level 30 minute after intake: n=5, in mg/dL (unit assumed); for Blood glucose level 30 minute after intake: 30 minutes
Protocol: Commercially available healthy mice (Crj:CD-1(ICR) with body weight of 20.5 to 26.0 g, bred by Japan Charles Liver Co., Ltd.), were used for the test.
The mice were divided into three groups (n=5). After left fasting for 20 hours, the mice of the compound-administered groups were forced to take orally DOG2Az, G2Az and corn starch as saccharide which was made into a liquid state with sterilized distilled water.
Blood was collected from the orbital vein of each mouse before and after the intake of the materials (0 and after 30 minutes), and the amount of glucose in blood was measured to determine the inhibitory effect against the rise of blood glucose level, i.e. anti-diabetic action of the compounds, after intake of corn starch. The inhibitory effect against the rise of blood glucose level was judged by t-test. Glucose concentration in blood was measured by a blood glucose level analyzer “ANTSENSE” (mfd. by Bayer Sankyo Ltd.).

| Compound | melting point | IC50 [1] | IC50 [2] | also measured |
| --- | --- | --- | --- | --- |
| C[C@H]1O[C@H](O[C@H]2[C@H](O)[C@@H](O)[C@@H](O[C@H]3[C@H](O)[C@@H](O)CNC[C@H]3O)O[C@@H]2CO)[C@H](O)[C@@H](O)[C@@H]1O (hydrate or solvate) [DOG2Az, (3R, 4R, 5R, 6S)-Hexahydro-3,5,6-trihydroxy-1H-azepine-4-yl O-(6-deoxy-α-D-glucopyranosyl)-(1→4)-α-D-glucopyranoside] | 132 to 134 °C (dec.) | – | – | – |
| C[C@H]1O[C@H](O[C@H]2[C@H](O)[C@@H](O)[C@@H](O[C@H]3[C@H](O)[C@@H](O)CNC[C@H]3O)O[C@@H]2CO)[C@H](O)[C@@H](O)[C@@H]1O[C@H]1O[C@H](CO)[C@@H](O)[C@H](O)[C@H]1O (hydrate or solvate) [GDOG2Az, (3R, 4R, 5R, 6S)-Hexahydro-3,5,6-trihydroxy-1H-azepine-4-yl O-(α-D-glucopyranosyl)-(1→4)-O-(6-deoxy-α-D-glucopyranosyl)-(1→4)-α-D-glucopyranoside] | 144 to 146 °C (dec.) | – | – | – |
| OCC1OC(OC2C(CO)OC(OC3C(O)CNCC(O)C3O)C(O)C2O)C(O)C(O)C1O (stereo not drawn) [Example G2Az, reference compound] | – | 0.043 mM | 0.082 mM | Significant test (t-test) (blood glucose level; 60 mg/kg oral + corn starch 2,000 mg/kg): P < 1%; Blood glucose level before intake (blood glucose level; group given 60 mg/kg oral + corn starch 2,000 mg/kg): 102 ± 21; Blood glucose level 30 minute after intake (blood glucose level; mice, 60 mg/kg oral + corn starch 2,000 mg/kg): 169 ± 8 |

Further lines, with some results ahead:

| melting point | IC50 [1] | IC50 [2] | Compound | also measured |
| --- | --- | --- | --- | --- |
| – | 0.024 mM | 0.037 mM | C[C@H]1O[C@H](O[C@H]2[C@H](O)[C@@H](O)[C@@H](O[C@H]3[C@H](O)[C@@H](O)CNC[C@H]3O)O[C@@H]2CO)[C@H](O)[C@@H](O)[C@@H]1O [DOG2Az, (3R, 4R, 5R, 6S)-Hexahydro-3,5,6-trihydroxy-1H-azepine-4-yl O-(6-deoxy-α-D-glucopyranosyl)-(1→4)-α-D-glucopyranoside] | Significant test (t-test) (blood glucose level; 5 mg/kg oral + corn starch 2,000 mg/kg): P < 0.1%; Blood glucose level before intake (blood glucose level; group given 5 mg/kg oral + corn starch 2,000 mg/kg): 101 ± 18; Blood glucose level 30 minute after intake (blood glucose level; mice, 5 mg/kg oral + corn starch 2,000 mg/kg): 136 ± 23; rise of blood glucose level in comparison with the control group (blood glucose level; mice, 5 mg/kg oral + corn starch 2,000 mg/kg, result in words): suppressed significantly |
| – | 0.026 mM | 0.028 mM | C[C@H]1O[C@H](O[C@H]2[C@H](O)[C@@H](O)[C@@H](O[C@H]3[C@H](O)[C@@H](O)CNC[C@H]3O)O[C@@H]2CO)[C@H](O)[C@@H](O)[C@@H]1O[C@H]1O[C@H](CO)[C@@H](O)[C@H](O)[C@H]1O [GDOG2Az, (3R, 4R, 5R, 6S)-Hexahydro-3,5,6-trihydroxy-1H-azepine-4-yl O-(α-D-glucopyranosyl)-(1→4)-O-(6-deoxy-α-D-glucopyranosyl)-(1→4)-α-D-glucopyranoside] | – |
